In patent US6281214A, “Biphenyl derivatives” (Eisai Co., Ltd, priority 1994, dated 2001):
Read-outs that look alike come from different tables or passages of the source.

Assays:
Parameters in all cases: species or system SD rats
[1] = biological target: T1, serotonin S2 receptor (Rattus norvegicus, UniProt P14842); assay: serotonin S2 receptor binding test ([3H] Ketanserin Binding Test); details: 1 nM [3H] Ketanserin, rat cortex, 37° C., 15 minutes
T1 construct: The receptor fraction prepared from the cortex was molten and suspended; from tissue; host or cells: cerebral cortex of SD rats (membrane fraction)
Procedure: (§1) The compounds of the present invention were subjected to each of serotonin S2 receptor binding test, dopamine D2 receptor binding test and adrenergic α1 receptor binding test.
(§2) The following reagents were used in this test.
(§3) These reagents and samples were each dissolved in 10% ethanol before use. Among them, water-insoluble compounds were each dissolved in ethanol and the obtained solution was diluted with distilled water to an ethanol concentration of 10%. Further, Methylsergide maleate was used in a state dissolved in distilled water.
(§4) SD rats aged 6 to 8 weeks were used.
(§5) SD rats were each slaughtered with a guillotine to extirpate its cerebrum. The cortex and corpus striatum were separated from the cerebrum. The former was used in serotonin S2 receptor binding test and adrenergic α1, receptor binding test, while the latter was used in dopamine D2 receptor binding test.
(§6) The cortex was homogenized in a 0.32 M sucrose solution in an amount ten times the wet weight of the cortex by the use of a teflon glass homogenizer and the resulting mixture was centrifuged at 10,000×G for 20 minutes. The obtained sediment was suspended in 50 mM Tris hydrochloride (pH 7.4) in an amount ten times the initial wet weight of the cortex by the use of a histocothrom, and the obtained suspension was centrifuged at 10,000×G for 20 minutes. This operation was repeated twice. The obtained sediment was suspended in 50 mM Tris hydrochloride (pH 7.4) in an amount 20 times the initial wet weight of the cortex by the use of a histocothrom. The suspension thus prepared was used as a receptor fraction. This receptor fraction was stored at -80° C. until use.
4. [^3 ] Ketanserin Binding Test
The receptor fraction prepared from the cortex was molten and suspended by the use of a histocothrom. The resulting suspension was incubated together with 1 nM-[^3 H] Ketanserin at 37° C. for 15 minutes. The resulting reaction system was filtered through a Whatman GF/B glass filter with an MR-30R type cell harvester mfd. by Blandel. The resulting filter was washed twice with 5 ml of 50 mM Tris hydrochloride (ph 7.4) cooled with ice and the radioactivity of the Ketanserin bound the receptor was determined by the use of a liquid scintillation counter with 5 ml of ACS II. The binding detected in the presence of […] of Methylsergide was regarded as nonspecific binding.
(§7) Each IC50 value was calculated by the probit method and each Ki value was determined by the following formula: [formula]
(§8) In the above formula, C represents the concentration of radioligand, and Kd represents the affinity of radioligand for the receptor as determined by the Scatchard analysis.

[2] = biological target: adrenergic α1 receptor; assay: adrenergic α1 receptor binding test ([3H] Prazosin Binding Test); details: 1 nM [3H] Prazosin, rat cortex, room temperature, 60 minutes
Procedure: as §1, §2, §3, §4, §5, §6, §7, §8
6. [^3 H] Prazosin Binding Test
(§9) This test was conducted in the same manner as that of the binding test of [^3 H] Ketanserin except that the receptor fraction prepared from the cortex was molten and suspended with a histocothrom, and the obtained suspension was incubated together with 1 nM-[^3 H] Prazosin at room temperature for 60 minutes and that the binding detected in the presence of 10 μl of Phentolamine was regarded as nonspecific binding.

[3] = biological target: T2, dopamine D2 receptor (Rattus norvegicus, UniProt P61169); assay: dopamine D2 receptor binding test ([3H] Spiperone Binding Test); details: 1 nM [3H] Spiperone, rat corpus striatum, room temperature, 60 minutes
T2 construct: the receptor fraction prepared from the corpus striatum was molten and suspended; from tissue; host or cells: corpus striatum of SD rats (membrane fraction)
Procedure: as §1, §2, §3, §4, §5
On the other hand, the corpus striatum was homogenized in a 0.32 M sucrose solution in an amount ten times the wet weight of the corpus striatum by the use of a teflon glass homogenizer and the obtained mixture was centrifuged at 1,000×G for 20 minutes. The obtained supernatant was centrifuged at 10,000×G for 20 minutes. The obtained sediments were suspended together in 50 mM Tris hydrochloride (pH 7.4) in an amount ten times the initial wet weight of the corpus striatum by the use of a histocothrom, and the obtained suspension was centrifuged at 10,000×G for 20 minutes. This operation was repeated thrice. The resulting sediment was suspended in 50 mM Krebs-Tris (pH 7.4) in an amount 100 times the initial wet weight of the corpus striatum by the use of a histocothrom. The obtained suspension was used as a receptor fraction. This receptor fraction was stored at -80° C. until use.
as §7, §8
5. [^3 H] Spiperone Binding Test
as §9, with “corpus striatum” for “cortex”, “H], Spiperone” for “H] Prazosin”, “Spiperone” for “Phentolamine”

[4] = read-out: Ki value, dopamine D2 receptor

T1 sequence (P14842 whole entry): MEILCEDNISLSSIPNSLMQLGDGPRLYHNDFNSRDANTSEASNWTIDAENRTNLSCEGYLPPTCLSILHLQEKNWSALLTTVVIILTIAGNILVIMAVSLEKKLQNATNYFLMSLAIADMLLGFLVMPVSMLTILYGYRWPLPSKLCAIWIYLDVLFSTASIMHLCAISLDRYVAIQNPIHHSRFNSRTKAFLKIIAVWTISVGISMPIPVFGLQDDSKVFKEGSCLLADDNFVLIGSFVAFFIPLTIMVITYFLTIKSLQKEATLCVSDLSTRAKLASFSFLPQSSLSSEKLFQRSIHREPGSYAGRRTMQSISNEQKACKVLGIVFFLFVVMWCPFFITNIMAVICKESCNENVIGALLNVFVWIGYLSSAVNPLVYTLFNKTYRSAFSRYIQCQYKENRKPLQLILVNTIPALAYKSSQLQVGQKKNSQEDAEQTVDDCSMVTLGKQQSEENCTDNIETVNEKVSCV
T2 sequence (P61169 whole entry): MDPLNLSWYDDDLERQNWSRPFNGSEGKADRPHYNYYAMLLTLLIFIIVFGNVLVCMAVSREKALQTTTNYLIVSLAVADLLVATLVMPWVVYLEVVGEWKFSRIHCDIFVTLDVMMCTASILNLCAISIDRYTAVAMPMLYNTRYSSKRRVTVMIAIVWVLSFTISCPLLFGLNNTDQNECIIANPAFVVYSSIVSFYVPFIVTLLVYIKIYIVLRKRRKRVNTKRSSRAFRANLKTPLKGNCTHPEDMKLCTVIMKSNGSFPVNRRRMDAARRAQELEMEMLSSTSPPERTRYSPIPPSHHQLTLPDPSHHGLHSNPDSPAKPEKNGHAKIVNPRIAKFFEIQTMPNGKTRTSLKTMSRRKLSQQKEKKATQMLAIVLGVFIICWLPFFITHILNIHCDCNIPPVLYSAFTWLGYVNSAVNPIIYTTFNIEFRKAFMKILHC

With `CCN1CCN(c2cc(NS(=O)(=O)CCCCl)c(Cl)c(-c3ccccc3C)c2)CC1` [Example 165] as the molecule, how does the Ki [1] read?
The Ki was 6.1 nM.

What about the Ki [2] of the same molecule?
Its Ki is > 1000 nM.

And the Ki [3, 4]?
Its Ki is 0.74 nM.

Which results are given for `CCN1CCN(c2cc(-c3ccccc3C)c(F)c(S(C)(=O)=O)c2)CC1` [Example 155]?
Ki [1]: 180 nM; Ki [2]: 845 nM; Ki [3, 4]: 41 nM

How did the Ki [1] turn out when `CCS(=O)(=O)c1cc(N2CCN(CCO)CC2)cc(-c2ccc(F)cc2)c1OC` [Example 195] was run?
The Ki was 5.75 nM.

What about the Ki [2] of the same molecule?
Its Ki is > 1000 nM.

And the Ki [3, 4]?
Its Ki is 70.6 nM.

For `CN1CCN(c2cc(NS(C)(=O)=O)c(Cl)c(-c3ccccc3Cl)c2)CC1` [Example 188, 1-Methyl-4-[3-(2-chlorophenyl)-4-chloro-5-methanesulfonylamino]phenylpiperazine], which Ki [1] is on record?
The Ki was 47.8 nM.

What about the Ki [2] of the same molecule?
The Ki was 19 nM.

What about the Ki [3, 4] of the same molecule?
Its Ki is 1.33 nM.

Which Ki [1] does the source give for `CCN1CCN(c2ccc(O)c(-c3ccccc3)c2)CC1` [Example 62, 1-Ethyl-4-(3-phenyl-4-hydroxy)phenylpiperazine] here?
Its Ki is > 1000 nM.

And the Ki [2]?
The Ki was > 1000 nM.

And the Ki [3, 4]?
Its Ki is > 1000 nM.

With `CCCC(F)c1cc(N2CCN(CC)CC2)cc(-c2ccccc2C)c1Cl` (centres unmarked) [Example 49, 1-Ethyl-4-[3-(2-tolyl)-4-chloro-5-(1-fluorobutyl)]phenylpiperazine] as the molecule, how does the Ki [1] read?
The Ki was 20.1 nM.

What about the Ki [2] of the same molecule?
Its Ki is > 1000 nM.

What about the Ki [3, 4] of the same molecule?
The Ki was 6.09 nM.

What does the source list for `CCN1CCN(c2cc(-c3ccccc3C)c(Cl)c(C(C)F)c2)CC1` (centres unmarked) [Example 52]?
Ki [1]: 21.6 nM; Ki [2]: > 1000 nM; Ki [3, 4]: 0.99 nM

`CCC(F)c1cc(N2CCN(CC)CC2)cc(-c2ccccc2COC)c1Cl` (centres unmarked) [Example 145, 1-Ethyl-4-[3-(2-methoxymethylphenyl)-4-chloro-5-(1-fluoropropyl)]phenylpiperazine] was tested. Which Ki [1] did it give?
Its Ki is 72.5 nM.

And the Ki [2]?
Its Ki is > 1000 nM.

And the Ki [3, 4]?
Its Ki is 8.28 nM.

For `CCCCC(F)c1cc(N2CCN(CC)CC2)cc(-c2ccccc2)c1OC` (centres unmarked) [Example 48, 1-Ethyl-4-[3-phenyl-4-methoxy-5-(1-fluoropentyl)]phenylpiperazine], which Ki [1] is on record?
Its Ki is 4.32 nM.

And the Ki [2]?
Its Ki is > 1000 nM.

What about the Ki [3, 4] of the same molecule?
The Ki was 25.8 nM.

Which Ki [1] does the source give for `CCN1CCN(c2cc(-c3ccccc3)c(OC)c(C3OCCCO3)c2)CC1` [Example 107, 1-Ethyl-4-[3-phenyl-4-methoxy-5-(1,3-dioxan-2yl)]phenylpiperazine] here?
Its Ki is > 1000 nM.

What about the Ki [2] of the same molecule?
Its Ki is > 1000 nM.

And the Ki [3, 4]?
Its Ki is 429 nM.

`CCCS(=O)(=O)Nc1cc(N2CCN(CC)CC2)cc(-c2ccccc2C#N)c1Cl` [Example 197, 1-Ethyl-4-[3-(2-cyanophenyl)-4-chloro-5-propanesulfonylamino]phenylpiperazine] was tested. Which Ki [1] did it give?
Its Ki is 8.86 nM.

And the Ki [2]?
The Ki was 31.4 nM.

And the Ki [3, 4]?
The Ki was 1.4 nM.

Which Ki [1] does the source give for `COc1c(C(=O)Cc2ccccc2)cc(N2CCNCC2)cc1-c1ccccc1` [Example 125, 1-(3-phenyl-4-methoxy-5-phenylacetyl)phenylpiperazine] here?
Its Ki is 1.49 nM.

And the Ki [2]?
Its Ki is > 1000 nM.

And the Ki [3, 4]?
The Ki was 101 nM.

With `CCCN1CCN(c2cc(-c3ccccc3C)c(Cl)c(C(F)CC)c2)CC1` (centres unmarked) [Example 151, 1-Propyl-4-[3-(2-tolyl)-4-chloro-5-(1-fluoropropyl)]phenylpiperazine] as the molecule, how does the Ki [1] read?
The Ki was 27.7 nM.

What about the Ki [2] of the same molecule?
The Ki was > 1000 nM.

And the Ki [3, 4]?
The Ki was 3.52 nM.

Which Ki [1] does the source give for `CCCS(=O)(=O)Nc1cc(N2CCN(C)CC2)cc(-c2ccccc2Cl)c1Cl` [Example 35, 1-Methyl-4-[3-(2-chloropheyl)-4-chloro-5-propanesulfonylamino]phenylpiperazine] here?
Its Ki is 3.37 nM.

And the Ki [2]?
Its Ki is 17 nM.

What about the Ki [3, 4] of the same molecule?
Its Ki is 0.5 nM.

Which results are given for `CCc1ccccc1-c1cc(N2CCN(CCO)CC2)cc(C(F)CC)c1Cl` (centres unmarked) [Example 218, 1-(2-Hydroxyethyl)-4-[3-(2-ethylphenyl)-4-chloro-5-(1-fluoropropyl)]phenylpiperazine]?
Ki [1]: 30.1 nM; Ki [3, 4]: 5.39 nM

Which Ki [1] does the source give for `CC[C@@H](F)c1cc(N2CCN(CCO)CC2)cc(-c2ccccc2C(F)(F)F)c1Cl` [Example 219, 1-(2-Hydroxyethyl)-4-{3-(2-trifluoromethylphenyl)-4-chloro-5-[1-(R)-fluoropropyl]}phenylpiperazine] here?
Its Ki is 151 nM.

And the Ki [3, 4]?
Its Ki is 5.54 nM.

Which Ki [1] does the source give for `CCC(Cl)c1cc(N2CCN(CC)CC2)cc(-c2ccccc2Cl)c1Cl` (centres unmarked) [Example 205, 1-Ethyl-4-[3-(2-chlorophenyl)-4-chloro-5-(1-chlorophenyl0phenylpiperazine)]phenylpiperazine] here?
Its Ki is 51.2 nM.

And the Ki [3, 4]?
The Ki was 2.83 nM.

`CCC(F)c1cc(N2CCN(CC)CC2)cc(-c2c(C)cccc2C)c1Cl` (centres unmarked) [Example 215, 1-Ethyl-4-[3-(2,6-xylyl)-4-chloro-5-(1-fluoropropyl)]phenylpiperazine] was tested. Which Ki [1] did it give?
The Ki was 15.3 nM.

What about the Ki [3, 4] of the same molecule?
The Ki was 2.28 nM.

With `CC[C@H](F)c1cc(N2CCN(C)CC2)cc(-c2ccccc2CF)c1Cl` [Example 210, 1-Methyl-4-{3-(2-fluoromethylphenyl)-4-chloro-5-[1-(S)-fluoropropyl]}phenylpiperazine] as the molecule, how does the Ki [1] read?
The Ki was 6.25 nM.

What about the Ki [3, 4] of the same molecule?
The Ki was 16.1 nM.

Which Ki [1] does the source give for `CC[C@@H](F)c1cc(N2CCN(CC)CC2)cc(-c2ccc(F)cc2C)c1Cl` [Example 212, 1-Ethyl-4-{3-[2-(4-fluorotolyl)]-4-chloro-5-[1-(R)-fluorophenyl]}phenylpiperazine] here?
Its Ki is 1020 nM.

What about the Ki [3, 4] of the same molecule?
Its Ki is 3.9 nM.

How did the Ki [1] turn out when `CCS(=O)(=O)c1cc(N2CCN(CCF)CC2)cc(-c2ccc(F)cc2)c1OC` [Example 203, 1-(2-Fluoroethyl)-4-[3-(4-fluorophenyl)-4-methoxy-5-ethanesulfonyl]phenylpiperazine] was run?
The Ki was 54.8 nM.

`CCS(=O)(=O)c1cc(N2CCN(Cc3ccccn3)CC2)cc(-c2ccc(F)cc2)c1OC` [Example 199, 1-(2-Pyridylmethyl)-4-[3-(4-fluorophenyl)-4-methoxy-5-ethanesulfonyl]phenylpiperazine] was tested. Which Ki [1] did it give?
Its Ki is 63.2 nM.

What about the Ki [3, 4] of the same molecule?
Its Ki is 51.5 nM.

Which Ki [1] does the source give for `CC[C@@H](F)c1cc(N2CCN(C)CC2)cc(-c2ccccc2CF)c1Cl` [Example 209] here?
Its Ki is 42.7 nM.

And the Ki [3, 4]?
Its Ki is 3.9 nM.

How did the Ki [1] turn out when `CCS(=O)(=O)c1cc(N2CCNCC2)cc(-c2ccc(F)cc2)c1OC` [Example 202, 1-[3-(4-Fluorophenyl)-4-methoxy-5-ethanesulfonyl]phenylpiperazine] was run?
Its Ki is 6.33 nM.

And the Ki ([3]; Ki value, dopamine D2 receptor)?
Its Ki is 90.5 nM.

With `CC[C@@H](F)c1cc(N2CCN(CC)CC2)cc(-c2ccccc2C(F)(F)F)c1Cl` [Example 216, 1-Ethyl-4-{3-(2-trifluoromethylphenyl)-4-chloro-5-[1-(R)-fluoropropyl]}phenylpiperazine] as the molecule, how does the Ki [1] read?
Its Ki is 79 nM.

What about the Ki [3, 4] of the same molecule?
Its Ki is 11.3 nM.

Which Ki [1] does the source give for `CCc1ccccc1-c1cc(N2CCN(CC)CC2)cc(C(F)CC)c1Cl` (centres unmarked) [Example 217, 1-Ethyl-4-[3-(2-ethylphenyl)-4-chloro-5-(1-fluoropropyl)]phenylpiperazine] here?
The Ki was 25.5 nM.

What about the Ki [3, 4] of the same molecule?
The Ki was 3.57 nM.

For `CCN1CCN(c2cc(NS(=O)(=O)c3ccccc3)c(OC)c(-c3ccccc3)c2)CC1` [Example 120], which Ki [1] is on record?
The Ki was 17.4 nM.

And the Ki [3, 4]?
The Ki was 0.36 nM.

Which results are given for `C/C=C/c1cc(N2CCN(CC)CC2)cc(-c2ccccc2Cl)c1Cl` [Example 204]?
Ki [1]: 187 nM; Ki [3, 4]: 14.4 nM

How did the Ki [1] turn out when `CCC(F)c1cc(N2CCN(CCO)CC2)cc(-c2ccccc2Cl)c1Cl` (centres unmarked) [Example 23, 1-(2-Hydroxyethyl)-4-[3-(2-chlorophenyl)-4-chloro-5-(1-fluoropropyl)]phenylpiperazine] was run?
The Ki was 51.2 nM.

And the Ki [3, 4]?
The Ki was 7.22 nM.
